Results as given in US8633209B2, “Hydrobromide salts of a pyrazolylaminoquinazoline” (Ambit Biosciences Corporation, priority 2010, dated 2014).
“Also recorded” adds a separate entry of the source. Read-outs that look alike come from different tables or passages of the source.

Experiments:
Type in all cases: physicochemical
[1] = Heat and vapor stress (vacuum drying, RH jar) with XRPD analysis of the resulting solid form; conditions: for Result of vacuum drying (Additional Information): temperature and time not stated in Table V; for XRPD Results after vapor stress: ~94% RH vapor stress at RT for ~3 days
Method: X-ray powder diffraction analyses were performed using an Inel XRG-3000 diffractometer equipped with a CPS (Curved Position Sensitive) detector with a 2θ range of 120°. Real time data were collected using CuKα radiation at a resolution of 0.03° 2θ. The tube voltage and amperage were set to 40 kV and 30 mA, respectively. The monochromator slit was set at 5 mm by 160 μm. […] Samples were prepared into thin-walled glass capillaries for analysis. Each capillary was mounted onto a goniometer head that was motorized to permit spinning of the capillary during data acquisition. The samples were analyzed for 300 seconds. Instrument calibration was performed using a silicon reference standard.
Samples were placed in a RH jar of specified relative humidity at ambient temperature or elevated temperature for a given amount of time. Samples were placed in heating/vacuum oven at specified temperature for thermal stressing.

[2] = Moisture sorption/desorption (VTI SGA-100 Vapor Sorption Analyzer, 5% to 95% RH); conditions: for Hygroscopicity (moisture sorption data are consistent with): 5% to 95% RH; for Weight gain upon increase in relative humidity: from ~5% to ~95% RH; for Weight loss upon decrease in relative humidity: from ~95% to ~5% RH
Method: Moisture soption/desorption data were collected on a VTI SGA-100 Vapor Sorption Analyzer. Sorption and desorption data were collected over a range of 5% to 95% relative humidity (RH) at 10% RH intervals under a nitrogen purge. Samples were not dried prior to analysis. Equilibrium criteria used for analysis were less than 0.0100% weight change in 5 min, with a maximum equilibration time of 3 hrs if the weight criterion was not met. Data were not corrected for the initial moisture content of the samples. NaCl and PVP were used as calibration standards.

[3] = Solubility of the HBr salt of Form A in selected solvents, estimated by solvent addition under ambient conditions
Method: The solubility of the HBr salt of Form A in selected solvents was estimated by solvent addition under ambient conditions to provide preliminary information for the polymorph screen. […] This material is sparingly soluble in methanol, methanol/chloroform (1:1), and methanol/tetrahydrofuran (˜14-20 mg/mL).

Cc1cc(Nc2nc(C(O)c3ccc(F)cc3)nc3ccccc23)n[nH]1 (centres unmarked) [Form C, (4-fluorophenyl)(4-(5-methyl-1H-pyrazol-3-ylamino)quinazolin-2-yl)methanol]
Result of vacuum drying (Additional Information) ([1]; listed as C): Forms A and C. | XRPD Results after vacuum drying ([1]; vacuum at ~80° C. for ~1 day): mixture of Forms A and C

Cc1cc(Nc2nc(C(O)c3ccc(F)cc3)nc3ccccc23)n[nH]1 (centres unmarked) [Form E, (4-fluorophenyl)(4-(5-methyl-1H-pyrazol-3-ylamino)quinazolin-2-yl)methanol]
Hygroscopicity (moisture sorption data are consistent with) [2]: limited hygroscopic material | Weight loss upon equilibration at ~5% RH [2]: ~0.2 wt % | Weight gain upon increase in relative humidity [2]: 0.6 wt % | Weight loss upon decrease in relative humidity [2]: ~0.6 wt % | Result of vacuum drying (Additional Information) [1]: remained the same after vacuum | XRPD Results after vacuum drying ([1]; vacuum at ~60° C. for ~2 days): No changes were observed in the XRPD pattern; also recorded: physically stable; also recorded: Form E

Cc1cc(Nc2nc(C(O)c3ccc(F)cc3)nc3ccccc23)n[nH]1 (centres unmarked) [Form A, (4-fluorophenyl)(4-(5-methyl-1H-pyrazol-3-ylamino)quinazolin-2-yl)methanol]
solubility ([3]; DMF/water (1:1), aqueous with cosolvent or surfactant or cyclodextrin, thermodynamic from solid, solvent DMF/water (1:1), read-out: Solubility): 30000 µg/mL | solubility ([3]; DMF/water (1:2), aqueous with cosolvent or surfactant or cyclodextrin, thermodynamic from solid, solvent DMF/water (1:2), read-out: Solubility): 4000 µg/mL | solubility ([3]; DMF/water (1:4), aqueous with cosolvent or surfactant or cyclodextrin, thermodynamic from solid, solvent DMF/water (1:4), read-out: Solubility): < 2000 µg/mL | solubility ([3]; DMF/water (1:9), aqueous with cosolvent or surfactant or cyclodextrin, thermodynamic from solid, solvent DMF/water (1:9), read-out: Solubility): < 2000 µg/mL | solubility ([3]; MeOH/THF (1:1), organic solvent or mixture, thermodynamic from solid, solvent MeOH/THF (1:1), read-out: Solubility): 14000 to 20000 µg/mL | solubility ([3]; MeOH/chloroform (1:1), organic solvent or mixture, thermodynamic from solid, solvent MeOH/chloroform (1:1), read-out: Solubility): 14000 to 20000 µg/mL | solubility ([3]; acetone, organic solvent or mixture, thermodynamic from solid, solvent Acetone, read-out: Solubility): < 2000 µg/mL | solubility ([3]; acetonitrile, organic solvent or mixture, thermodynamic from solid, solvent ACN, read-out: Solubility): < 2000 µg/mL | solubility ([3]; chloroform, organic solvent or mixture, thermodynamic from solid, solvent Chloroform, read-out: Solubility): < 2000 µg/mL | solubility ([3]; dichloromethane, organic solvent or mixture, thermodynamic from solid, solvent DCM, read-out: Solubility): < 2000 µg/mL | solubility ([3]; dimethylformamide, organic solvent or mixture, thermodynamic from solid, solvent DMF, read-out: Solubility): > 114000 µg/mL | solubility ([3]; ethanol, organic solvent or mixture, thermodynamic from solid, solvent EtOH, read-out: Solubility): 3000 to 7000 µg/mL | solubility ([3]; ethyl acetate, organic solvent or mixture, thermodynamic from solid, solvent EtOAc, read-out: Solubility): < 2000 µg/mL | solubility ([3]; hexafluoroisopropanol, organic solvent or mixture, thermodynamic from solid, solvent HFIPA (hexafluoroisopropanol), read-out: Solubility): > 128000 µg/mL | solubility ([3]; isopropyl alcohol, organic solvent or mixture, thermodynamic from solid, solvent IPA, read-out: Solubility): < 2000 µg/mL | solubility ([3]; methanol, organic solvent or mixture, thermodynamic from solid, solvent MeOH, read-out: Solubility): 14000 to 20000 µg/mL | solubility ([3]; nitromethane, organic solvent or mixture, thermodynamic from solid, solvent Nitromethane, read-out: Solubility): < 2000 µg/mL | solubility ([3]; solvent ACN): <2000 µg/mL | solubility ([3]; solvent Acetone): <2000 µg/mL | solubility ([3]; solvent Chloroform): <2000 µg/mL | solubility ([3]; solvent DCM): <2000 µg/mL | solubility ([3]; solvent DMF): >114000 µg/mL | solubility ([3]; solvent DMF/water (1:4)): <2000 µg/mL | solubility ([3]; solvent DMF/water (1:9)): <2000 µg/mL | solubility ([3]; solvent EtOAc): <2000 µg/mL | solubility ([3]; solvent EtOH): 3000 µg/mL | solubility ([3]; solvent HFIPA (hexafluoroisopropanol)): >128000 µg/mL | solubility ([3]; solvent IPA): <2000 µg/mL | solubility ([3]; solvent MeOH): 18000 µg/mL | solubility ([3]; solvent MeOH/THF (1:1)): 14000 µg/mL | solubility ([3]; solvent MeOH/chloroform (1:1)): 16000 µg/mL | solubility ([3]; solvent Nitromethane): <2000 µg/mL | solubility ([3]; solvent THF): <2000 µg/mL | solubility ([3]; solvent Toluene): <2000 µg/mL | solubility ([3]; solvent Water): <2000 µg/mL | solubility ([3]; t-butanol/water (3:1), organic solvent or mixture, thermodynamic from solid, solvent t-Butanol/water (3:1), read-out: Solubility): 6000 µg/mL | solubility ([3]; tetrahydrofuran, organic solvent or mixture, thermodynamic from solid, solvent THF, read-out: Solubility): < 2000 µg/mL | solubility ([3]; toluene, organic solvent or mixture, thermodynamic from solid, solvent Toluene, read-out: Solubility): < 2000 µg/mL | solubility ([3]; water, thermodynamic from solid, solvent Water, read-out: Solubility): < 2000 µg/mL | Hygroscopicity (moisture sorption data are consistent with) [2]: limited hygroscopic material | Weight loss upon equilibration at ~5% RH [2]: ~0.3 wt % | Weight gain upon increase in relative humidity [2]: 1.0 wt % | Weight loss upon decrease in relative humidity [2]: ~1.0 wt %

Cc1cc(Nc2nc(C(O)c3ccc(F)cc3)nc3ccccc23)n[nH]1 (centres unmarked) [Forms A + B, (4-fluorophenyl)(4-(5-methyl-1H-pyrazol-3-ylamino)quinazolin-2-yl)methanol]
XRPD Results after vacuum drying ([1]; vacuum at ~60° C. for ~1 day): Form A + | XRPD Results after vacuum drying ([1]; vacuum at ~60° C. for ~2 days, listed as Forms A and B): primarily consistent with Form A with a minor amount of Form B

Cc1cc(Nc2nc(C(O)c3ccc(F)cc3)nc3ccccc23)n[nH]1 (centres unmarked) [Disordered Form A, (4-fluorophenyl)(4-(5-methyl-1H-pyrazol-3-ylamino)quinazolin-2-yl)methanol]
XRPD Results after vapor stress [1]: Disordered A | XRPD Results after vapor stress ([1]; listed as disordered Form A): remained disordered

Cc1cc(Nc2nc(C(O)c3ccc(F)cc3)nc3ccccc23)n[nH]1 (centres unmarked) [Form D, (4-fluorophenyl)(4-(5-methyl-1H-pyrazol-3-ylamino)quinazolin-2-yl)methanol]
Result of vacuum drying (Additional Information) ([1]; listed as D): Form A. | XRPD Results after vacuum drying ([1]; vacuum at ~40° C. for ~3 days): consistent with Form A

Cc1cc(Nc2nc(C(O)c3ccc(F)cc3)nc3ccccc23)n[nH]1 (centres unmarked) [Form B, (4-fluorophenyl)(4-(5-methyl-1H-pyrazol-3-ylamino)quinazolin-2-yl)methanol]
Result of vacuum drying (Additional Information) [1]: primarily consistent with Form A | XRPD Results after vacuum drying ([1]; vacuum at ~60° C. for ~1 day): mixture of Form A with small amount of Form B
